Measurements taken from patent US20250213627A1, “RECOMBINANT MICROORGANISM-BASED METHODS AND COMPOSITIONS FOR TREATMENT OF DISEASE” (Baylor College of Medicine, priority 2021, published 2025).

What was measured:
[1] = test system: CIA and PIA rat models of RA; experiment: Early and late treatment of CIA and PIA by LrS235; conditions: in vivo
Description: Early and late treatment of CIA and PIA by LrS235. The objective of these experiments is to define the benefits of LrS235 as an oral delivery system for ShK-235 in reducing joint damage and local and systemic inflammation in rat models of RA and compare its efficacy to that of injected ShK-235 and ShK-235 delivered via an enteric-coated capsule. CIA is induced in Lewis rats by two injections at a week interval of an emulsion of porcine collagen II in incomplete Freund's adjuvant at the base of the tail^36,40,65,66. PIA is induced in DA rats by the single injection of pristane at the base of the tail. Clinical signs of CIA are observed in some aspects 3-6 days after the booster injection and clinical signs of PIA are observed in some aspects 2-3 weeks after the pristane injection. Clinical signs are scored daily based on the number of joints affected and the severity of the swelling, as in FIG. 7A. […]
Rats start receiving daily treatments either at onset of clinical signs (early treatment), or 10 days later, at peak of disease severity (late treatment). […] Rats are monitored daily for body weight and scored for clinical signs of arthritis using a standard scoring method^36,40,65,66 described in herein (FIG. 7A). […] At the end of the trials, animals are euthanized for collection of blood, hind limbs, inguinal lymph nodes, and small and large intestines, and the following is measured: […]

[2] = test system: human and rat TEM cells; conditions: cited from earlier work
[3] = Bioavailability and pharmacokinetics of ShK-235 in circulation of healthy rats; assay type: in vivo, rat
Procedure: To test whether the intestinal environment interferes with LrS235 secretion of ShK-235, or prevents it from crossing into the circulation, healthy rats were gavaged with a single bolus of 1×10^9 CFU of either LrGusA or LrS235, both after SppIP induction, and 6 hours later, sera was collected and the ability of serum samples to block Kv1.3 channels tested by whole-cell patch-clamp.
Sera was taken at various timepoints ranging from 3 hours to 72 hours after the single bolus of LrS235. Peak levels of ShK-235 were detected 6 hours after LrS235 delivery, with the range of functional activity from 3 hours to 48 hours post-gavage (FIG. 8C).
Bioavailability and pharmacokinetics of ShK-235 after oral delivery. Male rats received a single oral gavage of either 1×10^9 cfus LrS235 or an enteric-coated capsule filled with ShK-235. Blood was collected via the saphenous vein at the different time points indicated in the figure, the last blood draw being a terminal cardiac puncture (48). Serum samples were assayed for Kv1.3 block by patch-clamp electrophysiology.

[4] = test system: collagen-induced arthritis (CIA) in Lewis rats; experiment: Collagen-induced arthritis (CIA) treatment trial; assay type: in vivo, rat
Procedure: Starting at onset of clinical signs, four groups of rats received ˜1×10^9 CFU of either LrGusA or LrS235, both after SppIP induction for 2.5 hr, by daily oral gavage, or P6N vehicle or synthetic ShK-235 by injection in the scruff of the neck every other day.
Induction, monitoring, randomization, and treatment of rat collagen-induced arthritis. CIA was induced as described previously (46, 50). Briefly, female Lewis rats received a subcutaneous injection of 200 μl of a 1:1 emulsion of 2 mg/ml porcine type II collagen (20031, Chondrex, Redmond, WA) with incomplete Freund's adjuvant at the base of the tail. After 7 days, rats were given a booster of 100 μl of collagen and adjuvant emulsion. Disease onset was defined as the development of at least one swollen or red paw joint. Clinical scores were determined daily by assigning 1 point for each swollen or red toe joint, 2 points for mildly swollen wrist or ankle joints, and 5 points for each severely swollen wrist or ankle, giving each rat a maximum possible score of 60. Upon disease onset, rats were treated every other day by the subcutaneous injection of P6N buffer vehicle or 0.1 mg/kg ShK-235, or the oral gavage of 1×10^9 cfus LrGusA or 1×10^9 cfus LrS235 daily. CIA is more severe in rats with early disease onset. To avoid biasing results based on disease severity on the day each rat developed signs of disease and accounting for differences in the time between immunization and when a rat developed signs of illness, every rat that developed signs of disease on a given day was placed in a different treatment group to fill all groups in parallel.
Histology and micro-CT. Healthy rats and rats from the CIA trials were euthanized after 21 days of treatment, and their hind paws were collected and fixed in 10% buffered formalin. One paw from each rat was imaged by Micro-CT using a Bruker SkyScan 1272 Scanner set at 13 μm resolution with no filtering, no averaging, and a rotation step of 0.3. Raw images were analyzed with CTvox (Bruker, MA, US). The other hind paw was decalcified, embedded in paraffin, and sectioned. Slides were stained with either hematoxylin and eosin or Safranin O/Fast green and imaged at 4× magnification on a Nikon Ci-L bright-field microscope (Nikon Inc. NY, US). Scoring of the slides was completed by an investigator blinded to treatment groups using a comprehensive histological scoring system as described elsewhere (46, 51), in which cartilage degradation, cartilage erosion, angiogenesis, pannus formation, synovial hyperplasia, and synovial inflammation were evaluated by the following criteria: 0=absent, 1=mild, 2=moderate, 3=severe. The data were presented as mean±standard deviation.

**Q.** For `CC[C@H](C)[C@@H]1NC(=O)[C@H](CO)NC(=O)[C@H](Cc2c[nH]cn2)NC(=O)[C@H](CCCCN)NC(=O)[C@@H]2CSSC[C@@H]3NC(=O)[C@H]([C@@H](C)O)NC(=O)[C@H](CCCCN)NC(=O)[C@H](CCCNC(=N)N)NC(=O)[C@H](CSSC[C@H](NC(=O)[C@H](CCCNC(=N)N)NC(=O)[C@H](CO)NC(=O)[C@H](CCCCN)NC(=O)[C@@H]4CCCN4C(=O)[C@H]([C@@H](C)CC)NC(=O)[C@H]([C@@H](C)O)NC(=O)[C@H](CC(=O)O)NC(=O)[C@H]([C@@H](C)CC)NC(=O)[C@@H](NC(=O)[C@H](CO)NC(=O)[C@@H](N)CCCNC(=N)N)CSSC[C@@H](C(=O)N[C@@H](C)C(=O)O)NC(=O)[C@H]([C@@H](C)O)NC(=O)CNC3=O)C(=O)N[C@@H]([C@@H](C)O)C(=O)N[C@@H](C)C(=O)N[C@@H](Cc3ccccc3)C(=O)N[C@@H](CCCCN)C(=O)N2)NC(=O)[C@H](Cc2ccccc2)NC(=O)[C@H](CO)NC(=O)[C@H](CC(C)C)NC(=O)[C@H](CCCNC(=N)N)NC(=O)[C@H](Cc2ccc(O)cc2)NC(=O)[C@H](CCCCN)NC1=O` [ShK-235], which “Effect on incidence and severity of CIA and PIA” value [1] is on record?
**A.** reduce the incidence

**Q.** What about the “Effect on activation and function of human and rat naïve and TCM cells” value [2] of the same molecule?
**A.** little to no effect

**Q.** What about the “Inhibition of activation of human and rat TEM cells” value [2] of the same molecule?
**A.** preferentially inhibits

**Q.** And the “Serum levels of ShK-235 after enteric-coated capsule” value ([3]; oral ACRYL-EZE coated capsule filled with 0.3 mg ShK-235)?
**A.** no measurable serum levels

**Q.** What about the level at time molar ([3]; rat, in vivo, injection of 0.1 mg/kg, read-out: Level detected in the circulation after injection) of the same molecule?
**A.** 0.6 to 0.8 nM

**Q.** What about the “Mean clinical score of arthritis” value ([4]; 21 days from onset, bacteria ~1×10^9 CFU daily oral gavage, synthetic ShK-235 0.1 mg/kg s.c. every other day, max score 60) of the same molecule?
**A.** 11±3

**Q.** And the “Joint histology parameters (cartilage degradation and erosion, angiogenesis, pannus, synovial hyperplasia and inflammation)” value ([4]; end of trial)?
**A.** significantly reduced all parameters

**Q.** And the “Micro-CT imaging of hind limbs (bone erosion)” value ([4]; end of trial)?
**A.** better-preserved bones

**Q.** What about the “Reduction of mean clinical score compared to vehicle control” value ([4]; same regimens as mean score) of the same molecule?
**A.** ~60%
